This passage reports IC50 results from ChEMBL document CHEMBL4342406, “Revealing quinquennial anticancer journey of morpholine: A SAR based review” (Eur J Med Chem, 2019).

The target of experiment [1] is Epidermal growth factor receptor (Homo sapiens, UniProt P00533, T790M). As to the kind of experiment: Inhibition of EGFR T790M mutant (unknown origin) incubated for 60 mins by ADP-Glo kinase assay.
In a further experiment the test system is HT-29. As to the kind of experiment: Cytotoxicity against human HT-29 cells assessed as reduction in cell viability after 72 hrs by MTT assay. In kind it is functional, cell-based. The note with it: HT-29, 72 h.
In another experiment the test system is Lymphocyte. As to the kind of experiment: Cytotoxicity against human lymphocytes assessed as reduction in cell viability after 72 hrs by MTT assay. In kind it is cell-based. In general terms: Tetrazolium assays rely on reduction of a dye to a coloured formazan, in cell work by metabolically active cells.
Experiment [2] relates to A549. As to the kind of experiment: Cytotoxicity against human A549 cells assessed as reduction in cell viability after 72 hrs by MTT assay. The experiment is classed as functional, cell-based. To be noted: A549, 72 h.
The subject of the next experiment is BEL-7404 tumor cell line. As to the kind of experiment: Antiproliferative activity in human Bel7404 cells by MTT assay. The experiment is classed as functional, cell-based.
The test system of experiment [3] is A549. The experiment can be described thus: Antiproliferative activity in human A549 cells by MTT assay. The experiment is classed as functional, cell-based.
The test system of experiment [4] is MCF7. The experiment can be described thus: Antiproliferative activity in human MCF7 cells by MTT assay. In kind it is functional, cell-based.
In a further experiment the test system is SMMC-7721. As to the kind of experiment: Antiproliferative activity in human SMMC7721 cells after 72 hrs by MTS assay. The note with it: SMMC-7721, 72 h. The experiment is classed as functional, cell-based.
The test system of a further experiment is Bel-7402. As to the kind of experiment: Antiproliferative activity in human Bel7402 cells after 72 hrs by MTS assay. In kind it is functional, cell-based. To be noted: Bel-7402, 72 h.
The next experiment relates to QGY-7703. The experiment can be described thus: Antiproliferative activity in human QGY7703 cells after 72 hrs by MTS assay. In kind it is functional, cell-based. The note with it: QGY-7703, 72 h.
The test system of experiment [5] is MCF7. The experiment can be described thus: Cytotoxicity against human MCF7 cells assessed as reduction in cell viability incubated for 3 days by MTT assay. The experiment is classed as functional, cell-based. The note with it: MCF7, 72 h.

Epidermal growth factor receptor, sequence (P00533 25-1210 T790M limits assumed): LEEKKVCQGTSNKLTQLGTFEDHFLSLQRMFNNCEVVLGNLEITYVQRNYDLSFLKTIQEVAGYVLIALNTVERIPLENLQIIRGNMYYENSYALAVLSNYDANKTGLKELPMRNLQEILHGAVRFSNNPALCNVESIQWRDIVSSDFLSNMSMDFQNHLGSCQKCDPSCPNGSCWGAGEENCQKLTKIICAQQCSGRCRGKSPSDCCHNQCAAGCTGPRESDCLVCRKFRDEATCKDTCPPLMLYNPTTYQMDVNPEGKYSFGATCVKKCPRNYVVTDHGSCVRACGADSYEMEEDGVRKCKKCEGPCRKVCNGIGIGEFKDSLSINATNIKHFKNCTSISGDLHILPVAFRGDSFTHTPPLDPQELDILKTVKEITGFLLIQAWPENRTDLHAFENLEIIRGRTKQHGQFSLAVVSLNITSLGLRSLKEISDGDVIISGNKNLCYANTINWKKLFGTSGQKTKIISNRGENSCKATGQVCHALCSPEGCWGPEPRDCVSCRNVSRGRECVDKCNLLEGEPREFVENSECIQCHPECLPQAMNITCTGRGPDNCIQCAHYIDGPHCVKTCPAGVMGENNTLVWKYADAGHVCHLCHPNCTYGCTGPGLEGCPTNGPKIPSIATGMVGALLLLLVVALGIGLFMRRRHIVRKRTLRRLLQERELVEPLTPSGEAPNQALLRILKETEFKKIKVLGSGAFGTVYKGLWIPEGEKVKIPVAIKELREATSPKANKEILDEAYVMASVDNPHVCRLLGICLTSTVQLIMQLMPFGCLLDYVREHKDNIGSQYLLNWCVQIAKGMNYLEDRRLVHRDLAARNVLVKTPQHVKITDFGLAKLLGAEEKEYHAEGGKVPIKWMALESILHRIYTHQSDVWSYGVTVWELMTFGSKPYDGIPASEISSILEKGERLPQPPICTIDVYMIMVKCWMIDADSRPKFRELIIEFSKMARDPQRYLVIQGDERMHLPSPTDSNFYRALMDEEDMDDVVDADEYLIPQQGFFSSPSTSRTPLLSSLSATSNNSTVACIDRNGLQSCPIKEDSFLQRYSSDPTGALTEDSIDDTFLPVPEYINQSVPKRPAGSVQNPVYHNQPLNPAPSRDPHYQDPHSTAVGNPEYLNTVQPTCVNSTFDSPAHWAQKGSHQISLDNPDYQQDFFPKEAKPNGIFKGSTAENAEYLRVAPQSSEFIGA

In general, IC50 refers to the concentration at which inhibition is half-maximal. `C=CC(=O)Nc1cccc(Nc2ncnc3cc(OC)c(OCCN4CCOCC4)cc23)c1` showed an IC50 in [1] of 0.0043 µM.
Consider `COc1ccc(Cn2cnc3c(cc(N4CCOCC4)c4ccccc43)c2=O)cc1`, for which the IC50 with HT-29 came to 4.12 µM; in the experiment with Lymphocyte, 175 µM; with A549 [2] it was 134 µM.
`CCCCCCCCCC[C@H](O)COCCOC[C@@H](O)CCCCCCCCCCCCCCN1CCOCC1`: the IC50 in the experiment with BEL-7404 tumor cell line is 25.8 µM; in the experiment with A549 [3], 11.7 µM; in the experiment on MCF7 [4] it was 13 µM.
With `O=c1ccc(-c2cc(C(F)(F)F)c(N3CCOCC3)nn2)n[nH]1`, the values for the IC50 with SMMC-7721, with Bel-7402 and in the experiment with QGY-7703 were 0.123 µM, 0.285 µM and 0.178 µM, respectively.
With `COc1c2ccoc2c(S(=O)(=O)N2CCOCC2)c2oc(C)c(C(C)=O)c(=O)c12`, the IC50 in the experiment on MCF7 [5] turned out to be 0.125 µM.
